Results: ChEMBL document CHEMBL5370694, “Novel Pyrrole Derivatives as Apolipoprotein L-1 Inhibitors for Treating Kidney Diseases and Sepsis” (ACS Med Chem Lett, 2023)

Tests used:
[1] = Inhibition of APOL1 isoform G2 variant in human U2OS cells incubated for 80 mins by thallium flux based FLIPR assay; format: cell-based
[2] = biological target: T1, Apolipoprotein L1 (Homo sapiens, UniProt O14791); experiment: Inhibition of wild type APOL1 containing G0 in human U2OS cells incubated for 80 mins by thallium flux based FLIPR assay; format: cell-based
T1 sequence (O14791 whole entry): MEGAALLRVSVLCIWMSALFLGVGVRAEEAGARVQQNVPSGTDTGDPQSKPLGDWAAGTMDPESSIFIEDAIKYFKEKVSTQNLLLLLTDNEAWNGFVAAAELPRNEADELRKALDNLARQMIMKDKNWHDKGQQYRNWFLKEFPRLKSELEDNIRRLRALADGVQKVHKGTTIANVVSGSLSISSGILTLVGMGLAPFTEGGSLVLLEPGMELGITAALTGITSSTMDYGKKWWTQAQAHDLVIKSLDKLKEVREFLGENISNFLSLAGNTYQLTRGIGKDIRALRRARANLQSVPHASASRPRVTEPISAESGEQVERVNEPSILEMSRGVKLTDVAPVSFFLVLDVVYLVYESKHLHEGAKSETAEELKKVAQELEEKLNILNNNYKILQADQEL

SMILES	IC50 [1]	IC50 [2]
CC(C)(C)c1cc(CCC(=O)N[C@@H]2C(=O)NC[C@H]2O)c(-c2ccc(C(F)(F)F)cc2)[nH]1	5.01 nM	1.58 nM
O=C(CCc1c(-c2ccc(Cl)cc2)[nH]c(C2(C(F)(F)F)CC2)c1F)N[C@@H]1C(=O)NC[C@H]1O	5.01 nM	2 nM
O=C(CCc1cc(C2(C(F)(F)F)CC2)[nH]c1-c1ccc(C(F)(F)F)cc1)N[C@@H]1C(=O)NC[C@H]1O	5.01 nM	2.51 nM

Stronger by IC50 [1], values ahead:

IC50 [1]	IC50 [2]	SMILES
3.98 nM	2.51 nM	O=C(CCc1cc(C2(C(F)(F)F)CC2)[nH]c1-c1ccc(Cl)cc1)N[C@@H]1C(=O)NC[C@H]1O
0.794 nM	0.501 nM	O=C(CCc1cc(-c2c(F)cc(F)cc2Cl)[nH]c1-c1ccc(Cl)cc1)N[C@@H]1C(=O)NC[C@H]1O
3.98 nM	3.16 nM	O=C(CCc1cc(-c2c(F)cc(F)cc2F)[nH]c1-c1ccc(Cl)cc1)N[C@@H]1C(=O)NC[C@H]1O
